Each structure is given as a SMILES string. Where a name gives a salt, the structure may show the parent alone.

This assay deals with T1, human NK1 receptor (Homo sapiens, UniProt P25103).
T1 construct: expressed in transfected cells; host or cells: CHO cells infected using the Semliki virus expression system; membrane suspension
T1 sequence (P25103 whole entry): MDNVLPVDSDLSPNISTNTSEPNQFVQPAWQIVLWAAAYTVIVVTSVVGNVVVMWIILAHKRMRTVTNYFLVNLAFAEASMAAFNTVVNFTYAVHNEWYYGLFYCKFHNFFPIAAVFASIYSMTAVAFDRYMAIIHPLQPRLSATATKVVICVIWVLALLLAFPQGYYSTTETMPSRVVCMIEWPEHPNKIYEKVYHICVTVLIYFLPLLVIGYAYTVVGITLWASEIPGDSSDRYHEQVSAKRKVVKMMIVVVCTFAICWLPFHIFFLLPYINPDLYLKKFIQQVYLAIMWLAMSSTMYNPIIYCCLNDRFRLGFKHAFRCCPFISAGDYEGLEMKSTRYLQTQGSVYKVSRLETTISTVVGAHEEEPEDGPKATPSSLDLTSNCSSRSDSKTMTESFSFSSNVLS
The assay can be described thus: NK1 receptor binding assay, [3H]substance P displacement. The note with it: affinity to the NK-1 receptor; human NK1 receptors in CHO cells, [3H]substance P 0.6 nM. The protocol:
The affinity of test compounds for the NK1 receptor was evaluated at human NK1 receptors in CHO cells infected with the human NK1 receptor (using the Semliki virus expression system) and radiolabelled with [^3H]substance P (final concentration 0.6 nM). Binding assays were performed in HEPES buffer (50 mM, pH 7.4) containing BSA (0.04 %) leupeptin (8 μg/ml), MnCl2 (3 mM) and phosphoramidon (2 μM). Binding assays consisted of 250 μl of membrane suspension (1.25×10^5 cells/assay tube), […] of buffer of displacing agent and 125 μl of [^3H]substance P. Displacement curves were determined with at least seven concentrations of the compound. The assay tubes were incubated for 60 min at room temperature after which time the tube contents were rapidly filtered under vacuum through GF/C filters presoaked for 60 min with PEI (0.3 %) with 2×2 ml washed of HEPES buffer (50 mM, pH 7.4). The radioactivity retained on the filters was measured by scintillation counting. All assays were performed in triplicate in at least 2 separate experiments.
`CCOc1ccc2ccccc2c1CN1CCC(=O)NC(Cc2ccc(Cl)c(Cl)c2)C1=O` (racemic) [Example 17, (RS)-3-(3,4-Dichloro-benzyl)-1-(2-ethoxy-naphthalen-1-yl-methyl)-[1,4]diazepane-2,5-dione] gave a Ki of 5.37 nM. Take `O=C1C(Cc2ccc(Cl)c(Cl)c2)n2cnnc2CCN1Cc1cc(C(F)(F)F)cc(C(F)(F)F)c1` (racemic) [Example 20, (RS)-6-(3,5-Bis-trifluoromethyl-benzyl)-4-(3,4-dichloro-benzyl)-7,8-dihydro-6H-1,2,3a,6-tetraaza-azulen-5-one]: affinity was put at a Ki of 2.45 nM.

Turning to `O=C1C(Cc2ccc(Cl)c(Cl)c2)n2c(CCN3CCOCC3)nnc2CCN1Cc1cc(C(F)(F)F)cc(C(F)(F)F)c1` (racemic) [Example 21, (RS)-6-(3,5-Bis-trifluoromethyl-benzyl)-4-(3,4-dichloro-benzyl)-3-(2-morpholin-4-yl-ethyl)-7,8-dihydro-6H-1,2,3a,6-tetraaza-azulen-5-one], the Ki was 3.89 nM. Take `CN(C)Cc1nnc2n1C(Cc1ccc(Cl)c(Cl)c1)C(=O)N(Cc1cc(C(F)(F)F)cc(C(F)(F)F)c1)CC2` (racemic) [Example 23, (RS)-6-(3,5-Bis-trifluoromethyl-benzyl)-4-(3,4-dichloro-benzyl)-3-dimethylaminomethyl-7,8-dihydro-6H-1,2,3a,6-tetraaza-azulen-5-one]: affinity was put at a Ki of 4.37 nM.

In turn, `CN1CCCCC1c1nnc2n1C(Cc1ccc(Cl)c(Cl)c1)C(=O)N(Cc1cc(C(F)(F)F)cc(C(F)(F)F)c1)CC2` (racemic) [Example 24, (RS)-6-(3,5-Bis-trifluoromethyl-benzyl)-4-(3,4-dichloro-benzyl)-3-(1-methyl-piperidin-2-yl)-7,8-dihydro-6H-1,2,3a,6-tetraaza-azulen-5-one] gave a Ki of 5.62 nM. Take `CCCN=C1CCN(Cc2cc(C(F)(F)F)cc(C(F)(F)F)c2)C(=O)C(Cc2ccc(Cl)c(Cl)c2)N1` (racemic) [Example 26, (RS)-1-(3,5-Bis-trifluoromethyl-benzyl)-3-(3,4-dichloro-benzyl)-5-propylimino-[1,4]diazepan-2-one hydrochloride]: the affinity, expressed as Ki, was 7.08 nM.

The compound `COc1ccc2ccccc2c1CN1CCC(=O)N[C@@H](Cc2ccc(Cl)c(Cl)c2)C1=O` [Example 15, (3S)-3-(3,4-Dichloro-benzyl)-1-(2-methoxy-naphthalen-1-yl-methyl)-[1,4]diazepane-2,5-dione] showed a Ki of 3.24 nM.

Turning to `Cc1ccc2ccccc2c1CN1CCC(=O)N[C@@H](Cc2ccc(Cl)c(Cl)c2)C1=O` [Example 16, (3S)-3-(3,4-Dichloro-benzyl)-1-(2-methyl-naphthalen-1-yl-methyl)-[1,4]diazepane-2,5-dione], the affinity, expressed as Ki, was 3.8 nM. `COc1ccc2ccccc2c1CN1CCc2nncn2[C@@H](Cc2ccc(Cl)c(Cl)c2)C1=O` [Example 19, (4S)-4-(3,4-Dichloro-benzyl)-6-(2-methoxy-naphthalen-1-yl-methyl)-7,8-dihydro-6H-1,2,3a,6-tetraaza-azulen-5-one] gave a Ki of 1.74 nM.

In general, Ki refers to the equilibrium dissociation constant of an inhibitor or competing ligand from its target. Read a low Ki as a stronger hold on the target.

These data come from patent US6452001B2, “Diazapane derivatives useful as antagonists of neurokinin 1 receptor and methods for their formation” (Hoffmann-La Roche Inc., priority 2000, dated 2002).
